Measured values as given in article PMC4105339 (Antiviral research, 2014).
Marks after values point to notes of the source that are not given here.

What was measured:
[1] = target: B/Perth/211/01 wild type neuraminidase; details: cited from earlier work
[2] = test system: A/Fukui/45/04 H3N2 wild type neuraminidase
[3] = test system: H5N1 clade 2 A/Chicken/Bangli/BBVD-563/2007 neuraminidase; details: 37°C
[4] = test system: A/Mississippi/03/01 H1N1 wild type neuraminidase
[5] = test system: human influenza A strains (neuraminidase)
[6] = test system: H5N1 clade 1 A/Chicken/Vietnam/08/2004 neuraminidase; details: 37°C
[7] = test system: wild type viruses (neuraminidase)
[8] = target: clade 2 H5N1 neuraminidase; details: cited from earlier work
[9] = test system: H3N2 wild type neuraminidase; details: cited from earlier work
[10] = test system: B/Perth/211/01 influenza B wild type neuraminidase
[11] = target: clade 1 H5N1 neuraminidase; details: cited from earlier work

Row | Structure (SMILES) | IC50 [1] [nM] | Time (T½) for reaction rates to reach half the maximum rate of the uninhibited control [2] [h] | Time (T½) for reaction rates to reach half the maximum rate of the uninhibited control [3] | Time (T½) for reaction rates to reach half the maximum rate of the uninhibited control [4] | T½ values [5] [h] | Time (T½) for reaction rates to reach half the maximum rate of the uninhibited control [6] | T½ (range over viruses) [7] [h] | IC50 [8] [nM] | increase in IC50 from 10 to 60 min after addition of substrate in the preincubation reaction [8] [fold] | changes in IC50 from 10 to 60 min in the preincubation reaction [9] [fold] | Time (T½) for reaction rates to reach half the maximum rate of the uninhibited control [10] | IC50 [11] [nM] | increase in IC50 from 10 to 60 min after addition of substrate in the preincubation reaction [11] [fold]
1 | CCC(CC)[C@H](NC(C)=O)[C@@H]1[C@H](O)[C@@H](C(=O)O)C[C@H]1N=C(N)N [Peramivir, peramivir] | 2.8 | >4 | 84.4 min | >240^* min | > 4 | 59.9 min | – | – | – | – | – | – | –
2 | CC(=O)N[C@H]1[C@H]([C@H](O)[C@H](O)CO)OC(C(=O)O)=C[C@@H]1N=C(N)N [Zanamivir] | 8.9 | – | 72.8^* min | 41.3 min | – | 27.7^* min | 0.467 to 1.82 | 1.3 | 2.2 | 1.3 | 24.6^* min | 2.1 | 4.5
